The record followed here is ChEMBL document CHEMBL3044945, “Synthesis of 1,3,5-trisubstituted pyrazoline nucleus containing compounds and screening for antimicrobial activity” (2012).

Common to all, as to assay type: functional
Experiment [1] concerns Bacillus pumilus. The experiment in a line: Antibacterial activity against Bacillus pumilus MTCC 1456 at 500 ug/ml after 48 hr by cup-plate method. Conditions: MTCC 1456, 48 h, read-out: DIZ.
Experiment [2] relates to Staphylococcus aureus. The experiment in a line: Antibacterial activity against Staphylococcus aureus MTCC 1430 at 1250 ug/ml after 48 hr by cup-plate method. Conditions: MTCC 1430, 48 h, read-out: DIZ.
Experiment [3] concerns Bacillus subtilis. The experiment is described as follows: Antibacterial activity against Bacillus subtilis MTCC 441 at 100 ug/ml after 48 hr by cup-plate method. Conditions: MTCC 441, 48 h, read-out: DIZ.
Experiment [4] deals with Bacillus pumilus. The experiment is described as follows: Antibacterial activity against Bacillus pumilus MTCC 1456 at 750 ug/ml after 48 hr by cup-plate method. Conditions: MTCC 1456, 48 h, read-out: DIZ.
Experiment [5] relates to Staphylococcus aureus. The experiment in a line: Antibacterial activity against Staphylococcus aureus MTCC 1430 at 1000 ug/ml after 48 hr by cup-plate method. Conditions: MTCC 1430, 48 h, read-out: DIZ.
In experiment [6] the test system is Bacillus subtilis. The experiment is described as follows: Antibacterial activity against Bacillus subtilis MTCC 441 after 24 to 48 hr by tube dilution method.
Experiment [7] relates to Pseudomonas fluorescens. The experiment in a line: Antibacterial activity against Pseudomonas fluorescens MTCC 2421 at 750 ug/ml after 48 hr by cup-plate method. Conditions: MTCC 2421, 48 h, read-out: DIZ.
Experiment [8] relates to Bacillus subtilis. The experiment is described as follows: Antibacterial activity against Bacillus subtilis MTCC 441 at 1250 ug/ml after 48 hr by cup-plate method. Conditions: MTCC 441, 48 h, read-out: DIZ.
Experiment [9] concerns Pseudomonas fluorescens. The experiment is described as follows: Antibacterial activity against Pseudomonas fluorescens MTCC 2421 at 100 ug/ml after 48 hr by cup-plate method. Conditions: MTCC 2421, 48 h, read-out: DIZ.
Experiment [10] has as its system Bacillus subtilis. The experiment in a line: Antibacterial activity against Bacillus subtilis MTCC 441 at 250 ug/ml after 48 hr by cup-plate method. Conditions: MTCC 441, 48 h, read-out: DIZ.
A further experiment concerns Aspergillus niger. The experiment is described as follows: Antifungal activity against Aspergillus niger MTCC 2546 at 1250 ug/ml after 48 hr by cup-plate method. Conditions: MTCC 2546, 48 h, read-out: DIZ.
Experiment [11] concerns Escherichia coli. The experiment in a line: Antibacterial activity against Escherichia coli MTCC 1573 at 100 ug/ml after 48 hr by cup-plate method. Conditions: MTCC 1573, 48 h, read-out: DIZ.
In experiment [12] the test system is Escherichia coli. The experiment is described as follows: Antibacterial activity against Escherichia coli MTCC 1573 at 1000 ug/ml after 48 hr by cup-plate method. Conditions: MTCC 1573, 48 h, read-out: DIZ.
A further experiment relates to Pseudomonas aeruginosa. The experiment is described as follows: Antibacterial activity against Pseudomonas aeruginosa MTCC 424 at 1250 ug/ml after 48 hr by cup-plate method. Conditions: MTCC 424, 48 h, read-out: DIZ.
For experiment [13], the system named is Escherichia coli. The experiment in a line: Antibacterial activity against Escherichia coli MTCC 1573 at 750 ug/ml after 48 hr by cup-plate method. Conditions: MTCC 1573, 48 h, read-out: DIZ.
A further experiment has as its system Micrococcus luteus. The experiment in a line: Antibacterial activity against Micrococcus luteus MTCC 1538 at 100 ug/ml after 48 hr by cup-plate method. Conditions: MTCC 1538, 48 h, read-out: DIZ.
The subject of experiment [14] is Staphylococcus aureus. The experiment in a line: Antibacterial activity against Staphylococcus aureus MTCC 1430 at 100 ug/ml after 48 hr by cup-plate method. Conditions: MTCC 1430, 48 h, read-out: DIZ.

Structures are written as SMILES. Converted amounts (≈) assume the structure as drawn.

As for `O=[N+]([O-])c1ccc(C2CC(c3cccc4ccccc34)=NN2c2ccccc2[N+](=O)[O-])cc1` (stereo not given), in the experiment with Bacillus pumilus [1], the zone of inhibition at 500 µg/mL is 12 mm. For the same molecule, the zone of inhibition at 1250 µg/mL in the experiment on Staphylococcus aureus [2] worked out at 15 mm; in the experiment with Bacillus subtilis [8], 17 mm; in the experiment on Aspergillus niger, 25 mm; in the experiment on Pseudomonas aeruginosa, 18 mm. The zone of inhibition at 100 µg/mL in the experiment on Bacillus subtilis [3] worked out at 12 mm; in the experiment with Pseudomonas fluorescens [9], 10 mm; in the experiment with Escherichia coli [11], 9 mm. Besides, the zone of inhibition at 750 µg/mL in the experiment on Bacillus pumilus [4] came to 18 mm; in the experiment on Pseudomonas fluorescens [7], 18 mm; in the experiment on Escherichia coli [13], 13 mm. For the same molecule, the zone of inhibition at 1000 µg/mL came to 13 mm in the experiment with Staphylococcus aureus [5] and 17 mm in the experiment with Escherichia coli [12]. This molecule also displayed an MIC in the experiment with Bacillus subtilis [6] of 19 µg/mL (≈ 43.3 µM). The zone of inhibition at 250 µg/mL in the experiment on Bacillus subtilis [10] was determined as 13 mm.

`NC(=S)N1N=C(c2cccc3ccccc23)CC1c1ccc([N+](=O)[O-])cc1` (stereo not given): in the experiment on Bacillus pumilus [1], the zone of inhibition at 500 µg/mL was 16 mm. Also, the zone of inhibition at 1250 µg/mL in the experiment on Staphylococcus aureus [2] turned out to be 14 mm; in the experiment with Bacillus subtilis [8], 22 mm; in the experiment on Aspergillus niger, 26 mm; in the experiment with Pseudomonas aeruginosa, 22 mm. For the same molecule, the zone of inhibition at 100 µg/mL in the experiment on Bacillus subtilis [3] worked out at 9 mm; in the experiment on Pseudomonas fluorescens [9], 8 mm; in the experiment with Escherichia coli [11], 8 mm. Besides, the zone of inhibition at 750 µg/mL was 18 mm in the experiment on Bacillus pumilus [4], 22 mm with Pseudomonas fluorescens [7] and 14 mm with Escherichia coli [13]. In addition, the zone of inhibition at 1000 µg/mL in the experiment with Staphylococcus aureus [5] is 12 mm; in the experiment on Escherichia coli [12], 16 mm. In the experiment with Bacillus subtilis [6], this molecule showed a minimal inhibitory concentration (MIC) of 30 µg/mL (≈ 79.7 µM). The zone of inhibition at 250 µg/mL with Bacillus subtilis [10] came to 11 mm.

In the case of `O=[N+]([O-])c1ccc(C2CC(c3cccc4ccccc34)=NN2)cc1` (stereo not given), in the experiment on Bacillus pumilus [1], the zone of inhibition at 500 µg/mL was 10 mm. Moreover, the zone of inhibition at 1250 µg/mL with Staphylococcus aureus [2] worked out at 16 mm; with Bacillus subtilis [8], 19 mm; in the experiment on Aspergillus niger, 18 mm; with Pseudomonas aeruginosa it was 15 mm. Also, the zone of inhibition at 100 µg/mL was found to be 10 mm in the experiment with Bacillus subtilis [3], 9 mm in the experiment with Micrococcus luteus and 9 mm in the experiment on Staphylococcus aureus [14]. Besides, the zone of inhibition at 750 µg/mL in the experiment with Bacillus pumilus [4] is 14 mm; in the experiment with Pseudomonas fluorescens [7], 14 mm; in the experiment on Escherichia coli [13] it was 13 mm. In addition, the zone of inhibition at 1000 µg/mL in the experiment on Staphylococcus aureus [5] is 14 mm; with Escherichia coli [12], 15 mm. Further, in the experiment on Bacillus subtilis [6], the minimum inhibitory concentration (MIC) turned out to be 30 µg/mL (≈ 94.5 µM). For the same molecule, the zone of inhibition at 250 µg/mL with Bacillus subtilis [10] stood at 12 mm.

As to `O=[N+]([O-])c1ccc(C2CC(c3cccc4ccccc34)=NN2c2ccc([N+](=O)[O-])cc2)cc1` (stereo not given), the zone of inhibition at 500 µg/mL in the experiment with Bacillus pumilus [1] is 10 mm. For the same molecule, the zone of inhibition at 1250 µg/mL in the experiment on Staphylococcus aureus [2] amounted to 13 mm; with Bacillus subtilis [8], 19 mm; in the experiment on Aspergillus niger, 25 mm; with Pseudomonas aeruginosa, 19 mm. Besides, the results for the zone of inhibition at 100 µg/mL in the experiment with Bacillus subtilis [3], with Pseudomonas fluorescens [9] and in the experiment on Escherichia coli [11] were 11 mm, 9 mm and 10 mm, respectively. Further, the zone of inhibition at 750 µg/mL in the experiment on Bacillus pumilus [4] was 15 mm; in the experiment on Pseudomonas fluorescens [7] it was 14 mm; in the experiment on Escherichia coli [13], 13 mm. Besides, the zone of inhibition at 1000 µg/mL in the experiment with Staphylococcus aureus [5] was found to be 12 mm; in the experiment with Escherichia coli [12] it was 15 mm. In addition, the MIC with Bacillus subtilis [6] worked out at 50 µg/mL (≈ 114 µM). Also, the zone of inhibition at 250 µg/mL with Bacillus subtilis [10] is 12 mm.

With `O=[N+]([O-])c1ccc(C2CC(c3cccc4ccccc34)=NN2c2ccccc2)cc1` (stereo not given), the zone of inhibition at 500 µg/mL with Bacillus pumilus [1] was 10 mm. The zone of inhibition at 1250 µg/mL with Staphylococcus aureus [2] was 18 mm; with Bacillus subtilis [8], 21 mm; in the experiment with Aspergillus niger, 23 mm; in the experiment with Pseudomonas aeruginosa it was 20 mm. In addition, the zone of inhibition at 100 µg/mL in the experiment with Bacillus subtilis [3] is 12 mm; in the experiment with Pseudomonas fluorescens [9], 8 mm; with Escherichia coli [11] it was 9 mm. In addition, the zone of inhibition at 750 µg/mL with Bacillus pumilus [4] was 14 mm; in the experiment with Pseudomonas fluorescens [7] it was 13 mm; in the experiment with Escherichia coli [13], 13 mm. For the same molecule, the zone of inhibition at 1000 µg/mL in the experiment with Staphylococcus aureus [5] and in the experiment on Escherichia coli [12] was 15 mm each time. Moreover, inhibition of growth with Bacillus subtilis [6] (MIC) required 50 µg/mL (≈ 127 µM). The zone of inhibition at 250 µg/mL with Bacillus subtilis [10] is 14 mm.

What is called MIC is the least concentration at which growth counts as inhibited.
